Type in all cases: cell-based, human
In experiment [1] the test system is LCSC6 lung cancer spheroid cells. Kind of experiment: Cell viability assay (CellTiter-Glo). The procedure: (§1) Briefly, lung and colorectal spheroids were dissociated mechanically or with TrypLE Express (Thermo Fisher Scientific) respectively and seeded 3 × 10^3 per well in 96-well plates (three replicates per experimental point) in serum-free medium, and incubated in a humidified atmosphere at 37 °C, 5% CO2. Cells were treated with the respective compounds and analysed after the appropriate time period as described in detail in Figure Legends. Luminescence was detected with a DTX880 multimode microplate reader (Beckman Coulter, Brea, CA, USA).

The test system of experiment [2] is CSC 7 colorectal spheroid cells. Kind of experiment: Cell viability assay (CellTiter-Glo). The protocol:
as §1, with “Cell viability upon treatment with NanoFEN, zVAD, NAC, 3-MA, Myriocin, PPMP, GT11, SA and Rapamycin was determined by CellTiter-Glo luminescent cell viability assay (Promega, Madison, WI, USA) according to the manufacturer’s directions. Briefly,” for “Briefly,”

The subject of experiment [3] is Aldefluor activity (ALDH) in LCSC6. Kind of experiment: Cytofluorimetric analysis of Aldefluor activity. The note with it: LCSC6, representative analysis; NanoFEN at IC50 dose, Gemcytabine 25 µM; CTRL 38,6%. The procedure:
Values represent mean ± SD of three independent experiments. **P < 0.01; ***P < 0.001 from two-tailed t-test. d Schematic representation of stem-like factors (repressed in grey) emerged from RPPA analysis of lung CSCs treated as described in Fig. 4a. e Cytofluorimetric analysis of Aldefluor activity on LCSC6 treated with NanoFEN at IC50 dose and Gemcytabine 25 μM for 48 h. Values represent mean ± SD of three independent experiments. **P < 0.01; ***P < 0.001 from two-tailed t-test. f qRT-PCR analysis of indicated genes on whole tumor lysates derived from LCSC6 xenografts, untreated or treated with NanoFEN 30 mg/Kg/week and Cis 3 mg/Kg/week and Gem 60 mg/Kg/week (Cis + Gem). Values represent mean ± SD of three independent experiments. *P < 0.05; **P < 0.01 from two-tailed t-test. g Flow cytometry analysis of TOP-GFP.mc-transduced CSC7, untreated and treated with NanoFEN at the IC50 dose 0.2 μM and OXA 10 μM for 48 h. Values represent mean ± SD of three independent experiments. **P < 0.01 from two-tailed t-test. h Volume of xenografts derived from CSC10 transduced with TOP-GFP.mc untreated (black downward triangles) or treated with vehicle or treated NanoFEN 30 mg/Kg/week (green upward triangles) and OXA 5 mg/Kg/week plus 5FU 12.5 mg/Kg/week (red squares). […]

The subject of experiment [4] is reactive oxygen species (ROS) in LCSC6. Kind of experiment: Measurement of intracellular ROS levels (CM-H2DCFDA, flow cytometer). The note with it: LCSC6, NAC 2mM for 1h, then NanoFEN 4,9µM for 48 hours. The procedure: An equal number of dissociated spheroid cells (2.5 × 10^5) were seeded in 6-well cell culture plates. Briefly, each cell line was incubated with NanoFEN at IC50 concentration and pre-treated for 1 h with the antioxidant N-Acetyl-Cysteine (NAC). At different times, the cells were washed twice with pre-warmed Phosphate Saline Buffer (PBS) and then incubated in the same buffer containing 5 μM CM-H2DCFDA with DMSO alone at 37 °C. The fluorescence intensity of DCF was measured at 527 nm emission wavelength after excitation at 492 nm at 1 h intervals for up to 48 h using a Flow Cytometer Accuri (Becton Dickinson). An increase in fluorescence intensity as arbitrary units indicated the net generation of intracellular ROS.

The test system of experiment [5] is LCSC2 lung cancer spheroid cells. As to the kind of experiment: Cell viability assay (CellTiter-Glo). The note with it: LCSC2, GT11 0,5µM plus SA 2µM plus Rapamycin 10nM, 48 hours. The procedure: as §1, with “Cell viability upon treatment with NanoFEN, zVAD, NAC, 3-MA, Myriocin, PPMP, GT11, SA and Rapamycin was determined by CellTiter-Glo luminescent cell viability assay (Promega, Madison, WI, USA) according to the manufacturer’s directions. Briefly,” for “Briefly,”

With `COC(=O)C[C@H](NC(=O)[C@H](C)NC(=O)[C@@H](NC(=O)OCc1ccccc1)C(C)C)C(=O)CF` (racemic) [zVAD-fmk, z-Val-Ala-DL-Asp-fluoromethylketone], the “effect on NanoFEN-induced toxicity (cell viability)” value was “did not substantially inhibit” in experiment [1] (LCSC6 pretreated with zVAD 40 μΜ, then NanoFEN 4.9 μM, 48 h) and “did not substantially inhibit” in experiment [2] (CSC7 pretreated with zVAD 40 μΜ, then NanoFEN 0.2 μM, 48 h).
In the case of `Cn1cnc(N)c2ncnc1-2` [3-MA, 3-Methyladenine], the “effect on NanoFEN-induced death (cell viability)” value (shortened to “effect on NanoFEN-induced death”) is listed as “able to counteract” in experiment [1] (LCSC6, 3-MA 5 mM plus NanoFEN 4.9 μM, 24 h) and “able to counteract” in experiment [2] (CSC7, 3-MA 5 mM plus NanoFEN 0.2 μM, 24 h).
As for `Nc1ccn([C@@H]2O[C@H](CO)[C@@H](O)C2(F)F)c(=O)n1` [Gem, gemcitabine], in experiment [3], the “ALDH+” value was 74,6%.
On to `CC(=O)N[C@@H](CS)C(=O)O` [NAC, N-Acetyl-L-Cysteine], for which the “effect on NanoFEN-induced death” value in experiment [1] (LCSC6 pretreated with NAC 2 mM for 1 h, then NanoFEN 4.9 μM, 48 h) is listed as “partially rescued”; in experiment [2] (CSC7 pretreated with NAC 2 mM for 1 h, then NanoFEN 0.2 μM, 48 h) it was “partially rescued”. In addition, the “ROS levels in NanoFEN-treated cells after pretreatment” value in experiment [4] was “reduced”.
Turning to `CCCCCCCCCCCCCCCC(=O)NC(CN1CCOCC1)C(O)c1ccccc1` (stereo not shown) [PPMP, 1-phenyl-2-palmitoylamino-3-morpholino-1-propanol], the “effect on NanoFEN-induced death” value in experiment [1] (LCSC6, PPMP 10 μM plus NanoFEN 4.9 μM, 48 h) is “unable to block”; in experiment [2] (CSC7, PPMP 10 μM plus NanoFEN 0.2 μM, 48 h), “unable to block”.
For `CCCCCCCCCCCCCCC[C@@H](O)[C@@H](N)CO` [SA, sphinganine], the cell viability entry in experiment [1] (LCSC6, 48 hours, SA 2, 4, 6 µM, GT11 0,5, 2, 5 µM) was “dose-dependent viability decrease”.
As for `CCCCCCC(=O)CCCCCC/C=C/C[C@@H](O)[C@H](O)[C@@](N)(CO)C(=O)O` [myriocin], the “effect on NanoFEN-induced death” value in experiment [1] (LCSC6, Myriocin 1 μM plus NanoFEN 4.9 μM, 48 h) was “partially protected”; in experiment [2] (CSC7, Myriocin 1 μM plus NanoFEN 0.2 μM, 48 h) it was “partially protected”.
`CO[C@H]1C[C@@H]2CC[C@@H](C)[C@@](O)(O2)C(=O)C(=O)N2CCCC[C@H]2C(=O)O[C@H]([C@H](C)C[C@@H]2CC[C@@H](O)[C@H](OC)C2)CC(=O)[C@H](C)/C=C(\C)[C@@H](O)[C@@H](OC)C(=O)[C@H](C)C[C@H](C)/C=C/C=C/C=C/1C` [rapamycin]: the “effect on the toxic effects of the SA/GT11 combination (cell viability)” value in experiment [1] (LCSC6, GT11 0.5 μM plus SA 2 μM plus Rapamycin 10 nM, 48 h) is listed as “significantly potentiated”; in experiment [5], “significantly potentiated”; in experiment [2] (CSC7, GT11 0.5 μM plus SA 2 μM plus Rapamycin 10 nM, 48 h) it was “significantly potentiated”.

The values are drawn from paper PMC6646369, “A new bioavailable fenretinide formulation with antiproliferative, antimetabolic, and cytotoxic effects on solid tumors” (Cell Death & Disease, 2019).
